Assay: In vitro dissolution test (microcentrifuge, PBS pH 6.5, 37° C., HPLC)
Format: physicochemical
Details: for Drug 1 Concentration: PBS pH 6.5, 290 mOsm/kg, 37° C., 1000 μg/mL if all drug dissolved
Description: A sample of the solid amorphous dispersion used in Example 4 was evaluated before and after secondary drying in an in vitro dissolution test to determine the effect of drying on concentration enhancement relative to the crystalline form of Drug 1. As a control, Control 5 consisted of crystalline Drug 1 alone. For this test, a sufficient amount of Dispersion 1 and Control 5 material was added to microcentrifuge test tubes so that the concentration of Drug 1 would have been 1000 μg/mL in both cases if all of the drug had dissolved. The test was performed in duplicate. The tubes were placed in a 37° C. temperature-controlled chamber, and 1.8 mL PBS at pH 6.5 and 290 mOsm/kg was added to each tube. The samples were mixed using a vortex mixer for about 60 seconds. The samples were centrifuged at 13,000 G at 37° C. for 1 minute. The resulting supernatant solution was then sampled and diluted 1:6 (by volume) with methanol and then analyzed by high performance liquid chromatography (HPLC). The contents of each tube were mixed on the vortex mixer and allowed to stand undisturbed at 37° C. until the next sample was taken. Samples were collected at 4, 10, 20, 40, 90, and 1200 minutes.
The concentrations of drug obtained in these samples were used to determine the maximum concentration of drug (MDC90) and the area under the concentration-versus-time curve (AUC90) during the initial ninety minutes.

[1] = PBS pH 6.5, 37° C., initial 90 min

## CCOC(=O)N1c2ccc(C(F)(F)F)cc2[C@@H](N(Cc2cc(C(F)(F)F)cc(C(F)(F)F)c2)C(=O)OC)C[C@H]1CC [Control 5, [2R,4S]4-[(3,5-bistrifluoromethyl-benzyl)-methoxycarbonyl-amino]-2-ethyl-6-trifluoromethyl-3,4-dihydro-2H-quinoline-1-carboxylic acid ethyl ester]
[1]
  AUC90 (area under the concentration-versus-time curve during the initial ninety minutes): <88 µg·min/mL
  MDC90 (maximum concentration of drug during the initial ninety minutes): <1 µg/mL
Time 0 min, PBS pH 6.5, 37° C.
  AUC: 0 µg·min/mL
Time 0 min
  Drug 1 Concentration: 0 µg/mL
Time 4 min, PBS pH 6.5, 37° C.
  AUC: <2 µg·min/mL
Time 4 min
  Drug 1 Concentration: <1 µg/mL
Time 10 min, PBS pH 6.5, 37° C.
  AUC: <8 µg·min/mL
Time 10 min
  Drug 1 Concentration: <1 µg/mL
Time 20 min, PBS pH 6.5, 37° C.
  AUC: <18 µg·min/mL
Time 20 min
  Drug 1 Concentration: <1 µg/mL
Time 40 min, PBS pH 6.5, 37° C.
  AUC: <38 µg·min/mL
Time 40 min
  Drug 1 Concentration: <1 µg/mL
Time 90 min, PBS pH 6.5, 37° C.
  AUC: <88 µg·min/mL
Time 90 min
  Drug 1 Concentration: <1 µg/mL
Time 1200 min, PBS pH 6.5, 37° C.
  AUC: <1,200 min*μg/mL
Time 1200 min
  Drug 1 Concentration: <1 µg/mL
